{"source": "paper PMC11251039", "about": "“Harnessing cholesterol uptake of malaria parasites for therapeutic applications” (EMBO Molecular Medicine, 2024)", "tested_on": "asexual P. falciparum 3D7 wild-type parasites", "assay": "P. falciparum asexual growth inhibition assay (SYBR Safe DNA replication)", "assay_type": "cell-based, Plasmodium falciparum", "procedure": "P. falciparum asexual parasite assays commenced with ring-stage parasites at 1% parasitaemia and 1% haematocrit. 200 nM chloroquine (Sigma C6628) or artesunate (Sigma A3731) was used as a no-growth control. DNA replication (indicating growth) was measured at the specified time using SYBR Safe DNA Gel Stain (Invitrogen 33102) and a fluorescence microplate reader (Smilkstein et al, [2004]; Spry et al, [2013]). […]\nGrowth and Viability Inhibition Assays:\nPlasmodium falciparum Growth Inhibition Assays:\nP. falciparum parasites were maintained under routine culture conditions in red blood cells and RPMI 1640-Hepes with Glutamax, supplemented with 10 mM D-glucose, 480 μM hypoxanthine, 20 μg/mL gentamicin, 0.375% (w/v) AlbuMAXTM II (Thermo Fisher 11021029), and 2.5% v/v heat-inactivated human serum (17). Cultures were maintained at 37 °C […]\nwildtype parasites except for the ring stage survival assay, as specified. Cultures were synchronised with 5% w/v D-sorbitol (18).\nGrowth inhibition was investigated according to methods described by Smilkstein et al. (19) with modifications by Spry et al. (20). Compounds or solvent controls (DMSO, ethanol, or ethyl acetate) were serially diluted 2-fold across flat-bottom 96-well plates. Culture media without compound was used as a negative control. 200 nM chloroquine (Sigma C6628) or artesunate (Sigma A3731) was used as a positive control to determine background fluorescence. The parasitaemia of a culture containing predominantly ring stage parasites was counted by Giemsa smear. The parasitaemia was adjusted to 1% by addition of fresh uRBCs and added to the plate at a final haematocrit of 1%, with 200 µL per well. The plates were incubated at 37 °C under humid microaerophilic conditions. After 24, 48, or 72 hours, the plates were transferred to a -18 °C freezer to stop the assay and lyse cells. Plates were thawed and lysate was mixed 1:1 with SYBR Safe DNA Gel Stain (Invitrogen 33102) (final concentration 1/10,000) diluted in lysis buffer (20 mM TRIS, 5 mM EDTA, 0.008% w/v Saponin, 0.08% w/v Triton-X 100, pH 7.5). Fluorescence was detected at 490 nm excitation/ 520 nm emission on a FLUOstar Optima fluorescence plate reader (BMG Labtech).", "key": {"[1]": {"conditions": "Plasmodium falciparum, 3D7, 72 h; read-out: IC50, P. falciparum asexual growth inhibition"}, "[2]": {"conditions": "Plasmodium falciparum, 3D7; 24 h, starting at ring stages; read-out: IC50, P. falciparum asexual growth inhibition"}}, "note": "Values joined by “and” are separate entries in the source; they are usually repeats but may differ in a detail not shown here. Identical values can stand only once. Like-named read-outs stand apart in the source and are kept apart here."}
{"compound": "CCN(CC)CCCC(C)Nc1ccnc2cc(Cl)ccc12", "note": "(stereo not drawn) [Chloroquine, chloroquine, reference compound]", "values": [{"measurement": "IC50", "setting": "Plasmodium falciparum, 3D7, 24 h, read-out: IC50, P. falciparum asexual growth inhibition", "value": 10.9, "unit": "nM"}, {"measurement": "IC50", "setting": "Plasmodium falciparum, 3D7, 48 h, read-out: IC50, P. falciparum asexual growth inhibition", "value": 9.9, "unit": "nM"}, {"measurement": "IC50", "setting": "Plasmodium falciparum, 3D7, 72 h, read-out: IC50, P. falciparum asexual growth inhibition", "value": 9.7, "unit": "nM"}]}
{"compound": "CC(C)CCC[C@@H](C)[C@H]1CC[C@H]2[C@@H]3CC=C4C[C@@H](OC(=O)CCC(=O)OC(C)C)CC[C@]4(C)[C@H]3CC[C@]12C", "note": "[C-3-link]", "values": [{"measurement": "P. falciparum asexual growth, percentage of control", "setting": "0.781250000 uM, 24 h, replicate values, source data Fig. 2B; listed as GGA3", "value": "138.2% and 69.67% and 108.2% and 127.5% and 114.2% and 69.05% and 145.4% and 89.72% and 93.86%"}, {"measurement": "P. falciparum asexual growth, percentage of control", "setting": "1.562500000 uM, 24 h, replicate values, source data Fig. 2B; listed as GGA3", "value": "130.3% and 104.4% and 98.52% and 110.7% and 113.3% and 87.62% and 145.2% and 92.88% and 49.26%"}, {"measurement": "P. falciparum asexual growth, percentage of control", "setting": "3.125000000 uM, 24 h, replicate values, source data Fig. 2B; listed as GGA3", "value": "128.1% and 110.6% (2×) and 120.7% and 130.3% and 119.8% and 103.2% and 132.9% and 71.34%"}, {"measurement": "P. falciparum asexual growth, percentage of control", "setting": "6.250000000 uM, 24 h, replicate values, source data Fig. 2B; listed as GGA3", "value": "93.75% and 68.17% and 50.04% and 136.5% and 109.3% and 87.77% and 130% and 101.8% and 92.88%"}, {"measurement": "P. falciparum asexual growth, percentage of control", "setting": "12.500000000 uM, 24 h, replicate values, source data Fig. 2B; listed as GGA3", "value": "119.7% and 70.39% and 47.65% and 137.3% and 124.9% and 51.68% and 112.4% and 101.8% and 77.92%"}, {"measurement": "P. falciparum asexual growth, percentage of control", "setting": "25.000000000 uM, 24 h, replicate values, source data Fig. 2B; listed as GGA3", "value": "123.1% and 134.3% and 128.6% and 112.3% and 97.18% and 95.88% and 133.7% and 5.942% and 77.98%"}, {"measurement": "P. falciparum asexual growth, percentage of control", "setting": "50.000000000 uM, 24 h, replicate values, source data Fig. 2B; listed as GGA3", "value": "105.1% and 133.6% and 70.07% and 116% and 103% and 74.44% and 77.73% and 97.2% and 107.5%"}, {"measurement": "P. falciparum asexual growth, percentage of control", "setting": "100.000000000 uM, 24 h, replicate values, source data Fig. 2B; listed as GGA3", "value": "147.4% and 120% and 109% and 100.9% and 90.73% and 81.6% and 95.19% and 71.65% and 81.81%"}, {"measurement": "P. falciparum asexual growth, percentage of control", "setting": "200.000000000 uM, 24 h, replicate values, source data Fig. 2B; listed as GGA3", "value": "125% and 120.9% and 88.35% and 101.9% and 79.2% and 19.96% and 163.3% and 103.1% and 105.4%"}, {"measurement": "Inhibition of parasite growth", "setting": "24 h", "value": "no inhibition of parasite growth up to 200 µM"}, {"measurement": "IC50", "setting": "[1]", "value": "> 200000", "unit": "nM"}, {"measurement": "IC50", "setting": "[2]", "value": "> 200000", "unit": "nM"}]}
{"compound": "COc1cc(NC(C)CCCNC(=O)CCC(=O)O[C@H]2CC[C@@]3(C)C(=CC[C@H]4[C@@H]5CC[C@H]([C@H](C)CCCC(C)C)[C@@]5(C)CC[C@@H]43)C2)c2ncccc2c1", "note": "(stereo partly drawn) [C-3-PQ]", "values": [{"measurement": "P. falciparum asexual growth, percentage of control", "setting": "0.390625000 uM, 24 h, replicate values, source data Fig. 2B; listed as BC64C", "value": "131.7% and 66.76% and 95.56% and 108.4% and 112% and 85% and 101.8% and 112.2% and 92.84%"}, {"measurement": "P. falciparum asexual growth, percentage of control", "setting": "0.781250000 uM, 24 h, replicate values, source data Fig. 2B; listed as BC64C", "value": "150.2% and 111.9% and 88.57% and 84.46% and 114.9% and 73.34% and 95.38% and 91.75% and 80.98%"}, {"measurement": "P. falciparum asexual growth, percentage of control", "setting": "1.562500000 uM, 24 h, replicate values, source data Fig. 2B; listed as BC64C", "value": "126.1% and 129.8% and 105.9% and 128.7% and 121.9% and 90.74% and 123.6% and 79.12% and 103.6%"}, {"measurement": "P. falciparum asexual growth, percentage of control", "setting": "3.125000000 uM, 24 h, replicate values, source data Fig. 2B; listed as BC64C", "value": "126.5% and 121.8% and 108.8% and 133% and 55.06% and 86.31% and 120.7% and 105.6% and 95.15%"}, {"measurement": "P. falciparum asexual growth, percentage of control", "setting": "6.250000000 uM, 24 h, replicate values, source data Fig. 2B; listed as BC64C", "value": "133.8% and 98.67% and 102.2% and 109% and 94.05% and 103.7% and 108.1% and 76.85% and 81.21%"}, {"measurement": "P. falciparum asexual growth, percentage of control", "setting": "12.500000000 uM, 24 h, replicate values, source data Fig. 2B; listed as BC64C", "value": "157.5% and 116.3% and 102.8% and 135.3% and 108.6% and 85.91% and 111.9% and 81.39% and 66.81%"}, {"measurement": "P. falciparum asexual growth, percentage of control", "setting": "25.000000000 uM, 24 h, replicate values, source data Fig. 2B; listed as BC64C", "value": "149.9% and 129.1% and 105.1% and 150.2% and 115.2% and 49.33% and 125.1% and 71.79% and 57.24%"}, {"measurement": "P. falciparum asexual growth, percentage of control", "setting": "50.000000000 uM, 24 h, replicate values, source data Fig. 2B; listed as BC64C", "value": "150.4% and 131.3% and 98.75% and 124.5% and 117.8% and 89.9% and 146.3% and 135.4% and 89.26%"}, {"measurement": "P. falciparum asexual growth, percentage of control", "setting": "100.000000000 uM, 24 h, replicate values, source data Fig. 2B; listed as BC64C", "value": "78.34% and 90.49% and 98.72% and 114.4% and 78.89% and 75.44% and 171.9% and 124.7% and 104.9%"}, {"measurement": "Inhibition of parasite growth", "setting": "24 h", "value": "no inhibition of parasite growth up to 100 µM"}, {"measurement": "IC50", "setting": "[1]", "value": "> 200000", "unit": "nM"}, {"measurement": "IC50", "setting": "[2]", "value": "> 200000", "unit": "nM"}]}
